Laboratory results as given in US6958345B2, “2-hydroxymethylcyclopropylidene methylpurines and -pyrimidines as antiviral agents” (The Regents of the University of Michigan, priority 1997, dated 2005).

Tests used:
HHV-6 = HHV-6 ELISA in HSB-2 cells; type: cell-based, human herpes virus 6 (HHV 6)
Description: (c) HHV-6. In this case, enzyme-linked immunosorbent assay (ELISA) was performed in covalent amine plates (Costar, Cambridge, Mass.). The plates were activated by the addition of a homobifunctional crosslinking agent, bis(sulfosuccinimidyl) suberate, which was dissolved at 1 mg/mL in 30 mL of phosphate buffered saline (PBS: 137 mM NaCl, 2.7 mM KCl, 4.3 mM Na2HPO4, 1.4 mM KH2PO4, pH 7.4) and 300 μL of the crosslinker was added to each well in the covalent plate. The crosslinker reacted with the amine function on the plate for 30 min at room temperature. The byproduct, sodium N-hydroxysuccinimide sulfite, was removed by decanting and washing the plate twice with PBS. Samples consisting of 150 μl of mixed suspended HSB2 cells from the original drug-treated plate were solubilized in an equal volume of 10% Triton X-100 in coating buffer (15 mM Na2CO3, […] NaHCO3, pH 9.6). The plate was covered and then incubated for 1 h at 37° C. in a 5% CO2 atmosphere. These binding conditions facilitated covalent attachment of the antigen to the free end of the crosslinker.
After covalent binding, the antigen solution was decanted and the plate was washed six times in HEPES buffered saline (Shipman, C., Jr., Proc. Soc. Exp. Biol. 130:305-310 (1969)) with 0.05% Tween 20 (HBS-T ), soaking for three min for each wash. […] Absorbance in each well was determined at 450/570 nm.

HSV-1 = HSV-1 ELISA in BSC-1 cells; type: cell-based, herpes simplex 1 (HSV-1); details: BSC-1 cells; ELISA
Description: Virological procedures. Stock HCMV was prepared by infecting HFF cells at a multiplicity of infection (m.o.i.) of <0.01 plaque-forming units (p.f.u.) per cell. Cell growth medium was changed every four days until cytopathology was evident in all cells (approximately 21 days). Supernatant fluids were retained as the virus stock. High titer HSV-1 stocks were prepared by infecting KB cells at an m.o.i. of <0.1 as detailed previously. Turk, S. R., et al., Antimicrob. Agents Chemother. 31:544-550 (1987). Virus titers were determined using monolayer cultures of HFF cells for HCMV and monolayer cultures of BSC-1 cells for HSV-1 as described earlier. Prichard, M. N., et al., J. Virol. Methods 28:101-106 (1990). Briefly, HFF or BSC-1 cells were planted as described above in 96-well cluster dishes and incubated overnight at 37° C. in a humidified 3% CO297% air atmosphere. The next day cultures were inoculated with HCMV or HSV-1 and serially diluted 1:3 across the remaining eleven columns of the 96-well plate. Cultures were incubated at 37° C. for 2 hr to permit virus adsorption and then virus inoculum was replaced with 0.2 mL of fresh medium. Cultures were incubated for seven days for HCMV, two or three days for HSV-1, medium was removed, and the cell sheets were stained with 0.1% crystal violet in 20% methanol. Plaques were enumerated under 20-fold magnification in wells having the dilution which gave 5 to 20 plaques per well. Virus titers were calculated according to the following Formula: Titer (p.f.u./mL)=number of plaques×5×3^n; where n represents the nth dilution of the virus used to infect the well in which plaques were enumerated.
(b) HSV-1. An enzyme-linked immunosorbent assay (ELISA) was employed to detect HSV-1. 96-well cluster dishes were planted with BSC-1 cells at 10,000 cells per well, in a total volume of 200 μL per well of MEM(E) plus 10% calf serum. After overnight incubation at 37° C., drug and HSV-1 was added at the rate of 100 PFU/well. ELISA plates were blocked with 200 μL per well of 10% calf serum and 0.05% tween in HBS. After incubation for 30 minutes, the blocking agent was rinsed two times with HBS-T. A 1:400 dilution of AP conjugated rabbit anti-HSV-1 antibody in HBS-F was added. Plates were sealed with adhesive sheet, and incubated on rocker for one hour at 37° C. Plates were developed in the dark with 100 μL per well of substrate solution containing p-nitrophenyl phosphate. Plates were read at […]. Drug effects were calculated as a percentage of the reduction in virus in the presence of each drug concentration compared to the titer obtained in the absence of drug. Acyclovir was used as a positive control in all experiments.
Data Analysis. Dose-response relationships were constructed by linearly regressing the percent inhibition of parameters derived in the preceding sections against log drug concentrations. Fifty-percent inhibitory (IC50) concentrations were calculated from the regression lines. Samples containing positive controls (acyclovir for HSV-1, ganciclovir for HCMV, and 2-acetylpyridine thiosemicarbazone for cytotoxicity) were used in all assays.

For Nc1ncnc2c1ncn2C=C1CC1CO (stereo not drawn) [1 (B = adenine), Example 5, syn-N^9-(2-hydroxymethylcyclopropylidenemethyl)adenine], the IC50 (HHV-6) was 3 µM and the IC50 (HSV-1) was 3.7 µM.
